Values quoted from earlier work as cited in patent US10098891B2, “Highly concentrated stable meloxicam solutions for needleless injection” (BOEHRINGER INGELHEIM VETMEDICA GMBH, priority 2001, dated 2018).

Settings: aqueous solution

Cc1cnc(NC(=O)C2=C(O)c3ccccc3S(=O)(=O)N2C)s1 [meloxicam, 4-hydroxy-2-methyl-N-(5-methyl-2-thiazolyl)-2H-1,2-benzothiazine-3-carboxamide-1,1-dioxide]
solubility in water: does not dissolve readily in water
